Results as given in article PMC9525273 (Nature Communications, 2022).
Where “and” joins values, the source holds several entries; their conditions need not be identical. Equal entries are not always repeated. Entries after “also recorded” stand apart in the source; their conditions may differ. Where two headings read alike, the source gives them in different places.

Columns and labels:
Format in all cases: cell-based, Plasmodium falciparum
[1] = test system: Dd2-Polδ parasites; assay: P. falciparum proliferation assay (72 h, fluorescent DNA-intercalating dye)
Method: (§1) For experiments with all other parasites, the effects of compounds of interest on parasite proliferation was measured in 96-well plates containing serial dilutions of the compounds in culture medium, with a fluorescent DNA-intercalating dye used to detect surviving parasites. The assays were initiated with erythrocytes infected with predominantly ring-stage parasites, and the starting parasitaemia and haematocrit were both 1%.

[2] = test system: Dd2-Polδ-PfATP4^G358S parasites; assay: as above
Method: as §1

[3] = test system: MMV665949-selected Culture 1 (from Dd2-Polδ; not cloned); assay: as above; details: n = 4
Method: as §1, with “1%. […] Fluorescence was measured using a FLUOstar OPTIMA plate reader (BMG LABTECH), with OPTIMA version 2.20R2 and MARS Data Analysis Software version 3.01 R2 (BMG LABTECH).” for “1%.”

[4] = test system: NF54^WT parasites; assay: microbe, parasite or virus in culture; details: for FC (IC50) / FC (IC90): NF54WT, reference line
Method: (§2) For the NF54-based lines and Dd2-B2-PfATP4^G358S and its parent, assays were initiated with cultures containing predominantly ring-stage parasites with a parasitaemia of 0.3% and a haematocrit of 1%. All assays using NF54 were performed in culture media containing 10% O + human serum. The duration of the assays was 72 h and the concentration of DMSO was <0.5% (v/v). Serial dilutions of the test compounds were performed using a Tecan D300e digital dispenser, with parasite cultures added manually. Parasite survival was assessed by flow cytometry on an Intellicyt iQue3 (Essen Bioscience), with 1× SYBR Green I (Invitrogen) and 200 nM MitoTracker Deep Red FM (Invitrogen) used to stain the nucleus and the mitochondria in live parasites, respectively. The gating strategy used to quantify parasite survival, performed using FlowJo version 10 (FlowJo LLC.), is illustrated in Supplementary Fig. 9. IC50 and IC90 values were calculated by linear interpolation of the dose-response data.

[5] = test system: NF54^CTL parasites; assay: P. falciparum proliferation assay (72 h, flow cytometry, SYBR Green I/MitoTracker); details: for FC (IC50) / FC (IC90): NF54CTL compared to NF54WT
Method: as §2

[6] = test system: NF54^G358S-1 parasites; assay: as above; details: for FC (IC50) / FC (IC90): NF54G358S-1 compared to NF54WT
Method: as §2

[7] = test system: NF54^G358S-2 parasites; assay: as above; details: for FC (IC50) / FC (IC90): NF54G358S-2 compared to NF54WT
Method: as §2

[8] = test system: parasite lines with a G358S mutation in PfATP4; assay: P. falciparum proliferation assays, statements on all lines with the G358S mutation; details: G358S lines vs PfATP4 wild-type controls
Method: as §2, with “Two types of parasite proliferation assays were employed in this study, with both yielding highly consistent results. For” for “For”
as §1, with “1%. […] Fluorescence was measured using a FLUOstar OPTIMA plate reader (BMG LABTECH), with OPTIMA version 2.20R2 and MARS Data Analysis Software version 3.01 R2 (BMG LABTECH).” for “1%.”

[9] = test system: gene-edited NF54 lines (NF54^CTL, NF54^G358S-1, NF54^G358S-2); assay: P. falciparum proliferation assay, statements on several edited NF54 lines; details: all edited NF54 lines, including NF54CTL, vs NF54WT
Method: as §2, with “Two types of parasite proliferation assays were employed in this study, with both yielding highly consistent results. For” for “For”

[10] = NF54WT parasites, individual experiments, read-out: IC50 values
[11] = NF54WT parasites, individual experiments, read-out: IC90 values
[12] = Plasmodium falciparum, NF54, NF54WT parasites, mean of the experiments, read-out: IC50 values, MEAN
[13] = Plasmodium falciparum, NF54, NF54WT parasites, mean of the experiments, read-out: IC90 values, MEAN
[14] = NF54CTL parasites, individual experiments, read-out: IC50 values
[15] = NF54CTL parasites, individual experiments, read-out: IC90 values
[16] = Plasmodium falciparum, NF54, NF54CTL parasites, individual experiments, read-out: IC50 values
[17] = Plasmodium falciparum, NF54, NF54CTL parasites, individual experiments, read-out: IC90 values
[18] = Plasmodium falciparum, NF54, NF54CTL parasites, mean of the experiments, read-out: IC50 values, MEAN
[19] = Plasmodium falciparum, NF54, NF54CTL parasites, mean of the experiments, read-out: IC90 values, MEAN
[20] = NF54G358S-1 parasites, individual experiments, read-out: IC50 values
[21] = NF54G358S-1 parasites, individual experiments, read-out: IC90 values
[22] = Plasmodium falciparum, NF54, NF54G358S-1 parasites, individual experiments, read-out: IC50 values
[23] = Plasmodium falciparum, NF54, NF54G358S-1 parasites, individual experiments, read-out: IC90 values
[24] = Plasmodium falciparum, NF54, NF54G358S-1 parasites, mean of the experiments, read-out: IC50 values, MEAN
[25] = Plasmodium falciparum, NF54, NF54G358S-1 parasites, mean of the experiments, read-out: IC90 values, MEAN
[26] = NF54G358S-2 parasites, individual experiments, read-out: IC50 values
[27] = NF54G358S-2 parasites, individual experiments, read-out: IC90 values
[28] = Plasmodium falciparum, NF54, NF54G358S-2 parasites, individual experiments, read-out: IC50 values
[29] = Plasmodium falciparum, NF54, NF54G358S-2 parasites, individual experiments, read-out: IC90 values
[30] = Plasmodium falciparum, NF54, NF54G358S-2 parasites, mean of the experiments, read-out: IC50 values, MEAN
[31] = Plasmodium falciparum, NF54, NF54G358S-2 parasites, mean of the experiments, read-out: IC90 values, MEAN

## Oc1ccc(C(=C(Cl)Cl)c2ccc(O)cc2)cc1 [MMV665949]
[1]; Dd2-Polδ, Supplementary Table 1, Set 2, read-out: Mean IC50 value ± SEM for growth inhibition
  IC50: 4270 nM
[1]; parental Dd2-Polδ, paired with MMV665949-selected Culture 1, n = 4, read-out: IC50
  IC50: 4300 ± 700 nM
[2]; Dd2-Polδ-PfATP4G358S vs Dd2-Polδ, mean ± SEM
  IC50 fold higher than that of Dd2-Polδ parent: no significant change
[2]; Dd2-Polδ-PfATP4G358S, Supplementary Table 1, Set 2, read-out: Mean IC50 value ± SEM for growth inhibition
  IC50: 4870 ± 880 nM
[3]; MMV665949-selected Culture 1, paired experiments
  IC50 fold higher than for parental Dd2-Polδ: 10.7 ± 2.0 fold
[3]; MMV665949-selected Culture 1, mean ± SEM, read-out: IC50
  IC50: 44000 ± 7000 nM

## COc1ccc2nc3cc(Cl)ccc3c(Nc3cc(CN4CCCC4)c(O)c(CN4CCCC4)c3)c2n1 [Pyronaridine]
[4]; [10]
  IC50: 0.91 nM and 1.08 nM and 1.42 nM and 2.14 nM
[4]; [11]
  IC90: 1.44 nM and 2.14 nM and 2.78 nM and 4.07 nM
[4]
  FC (IC50): 1.0 fold
  FC (IC90): 1.0 fold
[4]; [12]
  IC50: 1.4 nM
[4]; [13]
  IC90: 2.61 nM
[4]; Plasmodium falciparum, NF54, NF54WT, 10% human serum, read-out: IC90 ± SEM
  IC90: 2.6 ± 0.6 nM
[5]
  FC (IC50): 1.2 fold
  FC (IC90): 1.1 fold
[5]; [14]
  IC50: 1.43 nM and 1.8 nM and 1.81 nM
[5]; [15]
  IC90: 2.8 nM and 2.91 nM
[5]; [16]
  IC50: 1.47 nM
[5]; [17]
  IC90: 2.85 nM
[5]; [18]
  IC50: 1.6 nM
[5]; [19]
  IC90: 2.86 nM
[5]; Plasmodium falciparum, NF54, NF54CTL, 10% human serum, read-out: IC90 ± SEM
  IC90: 2.9 ± 0.02 nM
[6]
  FC (IC50): 1.3 fold
  FC (IC90): 1.1 fold
[6]; [20]
  IC50: 1.77 nM and 2.02 nM and 2.17 nM
[6]; [21]
  IC90: 2.9 nM and 3.07 nM and 3.12 nM
[6]; [22]
  IC50: 1.24 nM
[6]; [23]
  IC90: 2.64 nM
[6]; [24]
  IC50: 1.8 nM
[6]; [25]
  IC90: 2.93 nM
[7]
  FC (IC50): 1.2 fold
  FC (IC90): 1.1 fold
[7]; [26]
  IC50: 1.86 nM and 1.73 nM and 2.02 nM
[7]; [27]
  IC90: 2.89 nM and 2.85 nM and 2.91 nM
[7]; Plasmodium falciparum, NF54, NF54G358S-2, 10% human serum, read-out: IC90 ± SEM
  IC90: 2.8 ± 0.1 nM
[7]; [28]
  IC50: 1.25 nM
[7]; [29]
  IC90: 2.63 nM
[7]; [30]
  IC50: 1.7 nM
[7]; [31]
  IC90: 2.82 nM
[8]
  effect of the G358S mutation in PfATP4 on parasite susceptibility: no effect

## CCCCN(CCCC)CC(O)c1cc(Cl)cc2c1-c1ccc(Cl)cc1/C2=C/c1ccc(Cl)cc1 (stereo not shown) [Lumefantrine]
[4]; [10]
  IC50: 57 nM and 33.7 nM and 89.8 nM and 48.6 nM
[4]; [11]
  IC90: 102 nM and 140 nM and 109 nM
[4]
  FC (IC50): 1.0 fold
  FC (IC90): 1.0 fold
[4]; Plasmodium falciparum, NF54, NF54WT parasites, individual experiments, read-out: IC90 values
  IC90: 142 nM
[4]; [12]
  IC50: 57.3 nM
[4]; [13]
  IC90: 123 nM
[5]
  FC (IC50): 0.8 fold
  FC (IC90): 1.0 fold
[5]; [14]
  IC50: 38.6 nM and 28.4 nM and 70.8 nM and 45.8 nM
[5]; [15]
  IC90: 98.1 nM and 138 nM and 120 nM
[5]; [17]
  IC90: 138 nM
[5]; [18]
  IC50: 45.9 nM
[5]; [19]
  IC90: 123 nM
[6]
  FC (IC50): 0.7 fold
  FC (IC90): 1.1 fold
[6]; [20]
  IC50: 34 nM and 51.7 nM and 36.1 nM
[6]; [21]
  IC90: 115 nM and 130 nM and 120 nM
[6]; [22]
  IC50: 48.2 nM
[6]; [23]
  IC90: 182 nM
[6]; [24]
  IC50: 42.5 nM
[6]; [25]
  IC90: 137 nM
[7]
  FC (IC50): 0.7 fold
  FC (IC90): 1.0 fold
[7]; [26]
  IC50: 31.8 nM and 46.1 nM and 31.3 nM
[7]; [27]
  IC90: 82.7 nM and 129 nM and 123 nM
[7]; [28]
  IC50: 55.1 nM
[7]; [29]
  IC90: 152 nM
[7]; [30]
  IC50: 41.1 nM
[7]; [31]
  IC90: 122 nM
[8]
  effect of the G358S mutation in PfATP4 on parasite susceptibility: no effect

## COc1nc(C(C)C)ccc1-c1cnc2sc(N3CCC(O)(CN)CC3)nn12 [INE963]
[4]; [10]
  IC50: 0.63 nM and 0.74 nM and 1.17 nM
[4]; [11]
  IC90: 1.68 nM and 1.36 nM and 1.75 nM and 2.98 nM
[4]
  FC (IC50): 1.0 fold
  FC (IC90): 1.0 fold
[4]; Plasmodium falciparum, NF54, NF54WT parasites, individual experiments, read-out: IC50 values
  IC50: 0.7 nM
[4]; [12]
  IC50: 0.81 nM
[4]; [13]
  IC90: 1.9 nM
[4]; Plasmodium falciparum, NF54, NF54WT, 10% human serum, read-out: IC50 ± SEM
  IC50: 0.8 ± 0.1 nM
[5]
  FC (IC50): 1.5 fold
  FC (IC90): 1.3 fold
[5]; [14]
  IC50: 1.15 nM and 1.14 nM and 1.42 nM
[5]; [15]
  IC90: 2.46 nM and 2.4 nM and 3.34 nM
[5]; [16]
  IC50: 1.02 nM
[5]; [17]
  IC90: 1.87 nM
[5]; [18]
  IC50: 1.18 nM
[5]; [19]
  IC90: 2.5 nM
[5]; Plasmodium falciparum, NF54, NF54CTL, 10% human serum, read-out: IC50 ± SEM
  IC50: 1.2 ± 0.1 nM
[6]
  FC (IC50): 1.4 fold
  FC (IC90): 1.4 fold
[6]; [20]
  IC50: 1.09 nM and 1.1 nM and 1.41 nM
[6]; [21]
  IC90: 2.82 nM and 2.85 nM and 3.37 nM
[6]; [22]
  IC50: 0.91 nM
[6]; [23]
  IC90: 1.87 nM
[6]; [24]
  IC50: 1.13 nM
[6]; [25]
  IC90: 2.7 nM
[7]
  FC (IC50): 1.4 fold
  FC (IC90): 1.4 fold
[7]; [26]
  IC50: 1.11 nM and 0.93 nM and 1.44 nM
[7]; [27]
  IC90: 2.37 nM and 2.77 nM and 3.43 nM
[7]; [28]
  IC50: 1.1 nM
[7]; [29]
  IC90: 2.11 nM
[7]; [30]
  IC50: 1.15 nM
[7]; [31]
  IC90: 2.7 nM
[9]
  fold increase in IC50 value: 1.4-1.5 fold
[8]
  effect of the G358S mutation in PfATP4 on parasite susceptibility: no impact; also recorded: no effect
